According to patent US20230391845A1, “GLP-1, GIP AND GLUCAGON RECEPTOR TRIPLE AGONISTS” (priority 2020, published 2023):
*1 amine or outer side, *2 acyl side, *3 side chain or, on linkers, in order; H or OH if unused. Where a SMILES comes first, the peptide text is derived from it. Side-chain parts run from the residue outwards. [ ]: non-standard residue; d: D form. The star is where a group is joined. X1 = O=C(O)CCCCCCCCCCCCCCCCCCC(=O)NCC1CCC(C(=O)*)CC1; C20 diacid = O=C(O)CCCCCCCCCCCCCCCCCCC(=O)*; C18 diacid = O=C(O)CCCCCCCCCCCCCCCCC(=O)*; γGlu = O=C(O)[C@H](CCC(=O)[*:2])N[*:1]; εLys = N[C@@H](CCCCN[*:1])C(=O)[*:2]; AEEA = NCCOCCOCC(=O)O; Aib = CC(C)(N)C(=O)O

Experiments:
[1] = biological target: T1, human GLP-1 receptor (Homo sapiens, UniProt P43220); assay: In vitro functional potency (CRE luciferase; whole cells), human GLP-1R; assay type: cell-based; details: BHK CRE luc2P hGLP-1R whole cells; Table 2; read-out: hGLP-1R CRE Luc EC50
T1 construct: expressed in transfected cells; host or cells: BHK cells (parent line BHKTS13) containing CRE luciferase

[2] = Pharmacokinetic study in minipigs, i.v. administration; parameters: species or system Göttingen minipigs; details: minipig, in vivo, iv
Description: The purpose of this example is to determine the half-life in vivo of the triple agonists as described herein after i.v. administration to minipigs, i.e. the prolongation of their time in the body and thereby their time of action. This is done in a pharmacokinetic (PK) study, where the terminal half-life of the triple agonist in question is determined. By terminal half-life is generally meant the period of time it takes to halve a certain plasma concentration, measured after the initial distribution phase.
Female Göttingen minipigs were obtained from Ellegaard Göttingen Minipigs (Dalmose, Denmark) approximately 7-14 months of age and weighing from approximately 16-35 kg were used in the studies. The minipigs were housed individually and fed restrictedly once daily with SDS minipig diet (Special Diets Services, Essex, UK).
After at 3 weeks of acclimatisation two permanent central venous catheters were implanted in vena cava caudalis in each animal. The animals were allowed 1 week recovery after the surgery, and were then used for repeated pharmacokinetic studies with a suitable wash-out period between successive dosings.
The animals were fasted for approximately 18 hours before dosing and from 0 to 4 hours after dosing, but had adlibitum access to water during the whole period.
Intravenous injections (the volume corresponding to usually 1.5-2 nmol/kg, for example 0.1 mL/kg) of the triple agonists were given through one catheter, and blood was sampled at predefined time points for up to 14 days post dosing (preferably through the other catheter). Blood samples (for example 0.8 mL) were collected in 8 mM EDTA buffer and then centrifuged at 4° C. and 1942 g for 10 minutes.
Plasma was pipetted into Micronic tubes on dry ice and kept at −20° C. until analysed for plasma concentration of the triple agonists using ELISA, or a similar antibody-based assay, or LCMS. Individual plasma concentration-time profiles were analysed by a non-compartmental model in Phoenix WinNonLin ver. 6.4. (Pharsight Inc., Mountain View, CA, USA), and the resulting terminal half-lives (harmonic mean) determined.

T1 sequence (P43220 24-463): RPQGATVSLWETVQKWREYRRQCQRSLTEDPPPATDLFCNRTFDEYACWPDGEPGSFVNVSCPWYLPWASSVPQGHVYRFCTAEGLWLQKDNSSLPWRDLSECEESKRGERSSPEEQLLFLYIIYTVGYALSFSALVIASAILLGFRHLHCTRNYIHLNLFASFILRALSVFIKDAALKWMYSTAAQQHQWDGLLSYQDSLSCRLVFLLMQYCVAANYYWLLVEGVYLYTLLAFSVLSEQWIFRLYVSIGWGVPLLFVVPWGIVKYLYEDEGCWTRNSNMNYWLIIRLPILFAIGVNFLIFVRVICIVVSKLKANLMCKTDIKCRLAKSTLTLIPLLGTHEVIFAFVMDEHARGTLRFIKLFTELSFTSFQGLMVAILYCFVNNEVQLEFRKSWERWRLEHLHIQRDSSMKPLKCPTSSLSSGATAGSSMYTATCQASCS

CC[C@H](C)[C@H](NC(=O)[C@H](CO)NC(=O)[C@H](Cc1ccc(O)cc1)NC(=O)[C@H](CC(=O)O)NC(=O)[C@H](CO)NC(=O)[C@@H](NC(=O)[C@H](Cc1ccccc1)NC(=O)[C@@H](NC(=O)CNC(=O)[C@H](Cc1c[nH]cn1)NC(=O)C(C)(C)NC(=O)[C@@H](N)Cc1c[nH]cn1)[C@@H](C)O)[C@@H](C)O)C(=O)N[C@@H](CC(C)C)C(=O)N[C@@H](CC(C)C)C(=O)N[C@@H](CCC(=O)O)C(=O)N[C@@H](CCCCNC(=O)[C@@H](N)CCCCNC(=O)[C@@H](N)CCCCNC(=O)CC[C@H](NC(=O)CCCCCCCCCCCCCCCCCCC(=O)O)C(=O)O)C(=O)N[C@@H](CCC(N)=O)C(=O)N[C@@H](C)C(=O)N[C@@H](C)C(=O)N[C@@H](CCCNC(=N)N)C(=O)N[C@@H](CCC(=O)O)C(=O)N[C@@H](Cc1ccccc1)C(=O)N[C@H](C(=O)N[C@@H](CCC(N)=O)C(=O)N[C@@H](Cc1c[nH]c2ccccc12)C(=O)N[C@@H](CC(C)C)C(=O)N[C@@H](CC(C)C)C(=O)N[C@@H](CCC(=O)O)C(=O)NCC(=O)NCC(=O)N1CCC[C@H]1C(=O)N[C@@H](CO)C(=O)N[C@@H](CO)C(=O)NCC(=O)N[C@@H](C)C(=O)N1CCC[C@H]1C(=O)N1CCC[C@H]1C(=O)N1CCC[C@H]1C(=O)N[C@@H](CO)C(=O)O)C(C)C [Compound No. 55] (H-H[Aib]HGTFTSDYSILLEK([εLys-εLys-γGlu-C20 diacid])QAAREFVQWLLEGGPSSGAPPPS-OH; N-terminus assumed)
EC50 [1]: 2 pM

CC[C@H](C)[C@H](NC(=O)[C@H](CO)NC(=O)[C@H](Cc1ccc(O)cc1)NC(=O)[C@H](CC(=O)O)NC(=O)[C@H](CO)NC(=O)[C@@H](NC(=O)[C@H](Cc1ccccc1)NC(=O)[C@@H](NC(=O)CNC(=O)[C@H](CCC(N)=O)NC(=O)C(C)(C)NC(=O)[C@@H](N)Cc1ccc(O)cc1)[C@@H](C)O)[C@@H](C)O)C(=O)N[C@@H](Cc1ccc(O)cc1)C(=O)N[C@@H](CC(C)C)C(=O)N[C@@H](CCC(=O)O)C(=O)N[C@@H](CCCCNC(=O)[C@@H](N)CCCCNC(=O)[C@@H](N)CCCCNC(=O)CC[C@H](NC(=O)CCCCCCCCCCCCCCCCCCC(=O)O)C(=O)O)C(=O)N[C@@H](CCC(N)=O)C(=O)N[C@@H](C)C(=O)N[C@@H](C)C(=O)NC(C)(C)C(=O)N[C@@H](CCC(=O)O)C(=O)N[C@@H](Cc1ccccc1)C(=O)N[C@H](C(=O)N[C@@H](CCC(N)=O)C(=O)N[C@@H](Cc1c[nH]c2ccccc12)C(=O)N[C@@H](CC(C)C)C(=O)N[C@@H](CC(C)C)C(=O)N[C@@H](CCC(=O)O)C(=O)NCC(=O)NCC(=O)N1CCC[C@H]1C(=O)N[C@@H](CO)C(=O)N[C@@H](CO)C(=O)NCC(=O)N[C@@H](C)C(=O)N1CCC[C@H]1C(=O)N1CCC[C@H]1C(=O)N1CCC[C@H]1C(=O)N[C@@H](CO)C(N)=O)C(C)C [Compound No. 17] (H-Y[Aib]QGTFTSDYSIYLEK([εLys-εLys-γGlu-C20 diacid])QAA[Aib]EFVQWLLEGGPSSGAPPPS-NH2)
EC50 [1]: 2.8 pM

CC(C)C[C@H](NC(=O)[C@H](CC(C)C)NC(=O)[C@H](Cc1c[nH]c2ccccc12)NC(=O)[C@H](CCC(N)=O)NC(=O)[C@@H](NC(=O)[C@H](Cc1ccccc1)NC(=O)[C@H](CCC(=O)O)NC(=O)C(C)(C)NC(=O)[C@H](C)NC(=O)[C@H](C)NC(=O)[C@H](CCC(N)=O)NC(=O)[C@H](CCCCNC(=O)[C@@H](N)CCCCNC(=O)[C@@H](N)CCCCNC(=O)CC[C@H](NC(=O)C1CCC(CNC(=O)CCCCCCCCCCCCCCCCCCC(=O)O)CC1)C(=O)O)NC(=O)[C@H](CCC(=O)O)NC(=O)[C@H](CC(C)C)NC(=O)[C@H](Cc1ccc(O)cc1)NC(=O)[C@H](Cc1ccc(O)cc1)NC(=O)[C@H](CO)NC(=O)[C@H](Cc1ccc(O)cc1)NC(=O)[C@H](CC(=O)O)NC(=O)[C@H](CO)NC(=O)[C@@H](NC(=O)[C@H](Cc1ccccc1)NC(=O)[C@@H](NC(=O)CNC(=O)[C@H](Cc1c[nH]cn1)NC(=O)C(C)(C)NC(=O)[C@@H](N)Cc1c[nH]cn1)[C@@H](C)O)[C@@H](C)O)C(C)C)C(=O)N[C@@H](CCC(=O)O)C(=O)NCC(=O)NCC(=O)N1CCC[C@H]1C(=O)N[C@@H](CO)C(=O)N[C@@H](CO)C(=O)NCC(=O)N[C@@H](C)C(=O)N1CCC[C@H]1C(=O)N1CCC[C@H]1C(=O)N1CCC[C@H]1C(=O)N[C@@H](CO)C(N)=O (stereo partly drawn) [Compound No. 25] (H-H[Aib]HGTFTSDYSYYLEK([εLys-εLys-γGlu-X1])QAA[Aib]EFVQWLLEGGPSSGAPPPS-NH2; N-terminus assumed)
half-life [2]: 3.29 days

CC(C)C[C@H](NC(=O)[C@H](CC(C)C)NC(=O)[C@H](Cc1c[nH]c2ccccc12)NC(=O)[C@H](CCC(N)=O)NC(=O)[C@@H](NC(=O)[C@H](Cc1ccccc1)NC(=O)[C@H](CCC(=O)O)NC(=O)C(C)(C)NC(=O)[C@H](C)NC(=O)[C@H](C)NC(=O)[C@H](CCC(N)=O)NC(=O)[C@H](CCCCNC(=O)[C@@H](N)CCCCNC(=O)[C@@H](N)CCCCNC(=O)CC[C@H](NC(=O)CCCCCCCCCCCCCCCCC(=O)O)C(=O)O)NC(=O)[C@H](CCC(=O)O)NC(=O)[C@H](CC(C)C)NC(=O)[C@H](Cc1ccc(O)cc1)NC(=O)[C@H](Cc1ccc(O)cc1)NC(=O)[C@H](CO)NC(=O)[C@H](Cc1ccc(O)cc1)NC(=O)[C@H](CC(=O)O)NC(=O)[C@H](CO)NC(=O)[C@@H](NC(=O)[C@H](Cc1ccccc1)NC(=O)[C@@H](NC(=O)CNC(=O)[C@H](Cc1c[nH]cn1)NC(=O)C(C)(C)NC(=O)[C@@H](N)Cc1c[nH]cn1)[C@@H](C)O)[C@@H](C)O)C(C)C)C(=O)N[C@@H](CCC(=O)O)C(=O)NCC(=O)NCC(=O)N1CCC[C@H]1C(=O)N[C@@H](CO)C(=O)N[C@@H](CO)C(=O)NCC(=O)N[C@@H](C)C(=O)N1CCC[C@H]1C(=O)N1CCC[C@H]1C(=O)N1CCC[C@H]1C(=O)N[C@@H](CO)C(N)=O [Compound No. 32] (H-H[Aib]HGTFTSDYSYYLEK([εLys-εLys-γGlu-C18 diacid])QAA[Aib]EFVQWLLEGGPSSGAPPPS-NH2)
half-life ([2]; female, Göttingen): 2.17 days

CC[C@H](C)[C@H](NC(=O)[C@H](CO)NC(=O)[C@H](Cc1ccc(O)cc1)NC(=O)[C@H](CC(=O)O)NC(=O)[C@H](CO)NC(=O)[C@@H](NC(=O)[C@H](Cc1ccccc1)NC(=O)[C@@H](NC(=O)CNC(=O)[C@H](CCC(N)=O)NC(=O)C(C)(C)NC(=O)[C@@H](N)Cc1ccc(O)cc1)[C@@H](C)O)[C@@H](C)O)C(=O)N[C@@H](Cc1ccc(O)cc1)C(=O)N[C@@H](CC(C)C)C(=O)N[C@@H](CCC(=O)O)C(=O)N[C@@H](CCCCN)C(=O)N[C@@H](CCC(N)=O)C(=O)N[C@@H](C)C(=O)N[C@@H](C)C(=O)NC(C)(C)C(=O)N[C@@H](CCCCNC(=O)COCCOCCNC(=O)COCCOCCNC(=O)CC[C@H](NC(=O)C1CCC(CNC(=O)CCCCCCCCCCCCCCCCCCC(=O)O)CC1)C(=O)O)C(=O)N[C@@H](Cc1ccccc1)C(=O)N[C@H](C(=O)N[C@@H](CCC(N)=O)C(=O)N[C@@H](Cc1c[nH]c2ccccc12)C(=O)N[C@@H](CC(C)C)C(=O)N[C@@H](CC(C)C)C(=O)N[C@@H](CCC(=O)O)C(=O)NCC(=O)NCC(=O)N1CCC[C@H]1C(=O)N[C@@H](CO)C(=O)N[C@@H](CO)C(=O)NCC(=O)N[C@@H](C)C(=O)N1CCC[C@H]1C(=O)N1CCC[C@H]1C(=O)N1CCC[C@H]1C(=O)N[C@@H](CO)C(N)=O)C(C)C (stereo partly drawn) [Compound No. 11] (H-Y[Aib]QGTFTSDYSIYLEKQAA[Aib]K([AEEA-AEEA-γGlu-X1])FVQWLLEGGPSSGAPPPS-NH2; N-terminus assumed)
EC50 [1]: 4.3 pM

CC[C@H](C)[C@H](NC(=O)[C@H](CO)NC(=O)[C@H](Cc1ccc(O)cc1)NC(=O)[C@H](CC(=O)O)NC(=O)[C@H](CO)NC(=O)[C@@H](NC(=O)[C@H](Cc1ccccc1)NC(=O)[C@@H](NC(=O)CNC(=O)[C@H](Cc1c[nH]cn1)NC(=O)C(C)(C)NC(=O)[C@@H](N)Cc1c[nH]cn1)[C@@H](C)O)[C@@H](C)O)C(=O)N[C@@H](Cc1ccc(O)cc1)C(=O)N[C@@H](CC(C)C)C(=O)N[C@@H](CCC(=O)O)C(=O)N[C@@H](CCCCNC(=O)[C@@H](N)CCCCNC(=O)[C@@H](N)CCCCNC(=O)CC[C@H](NC(=O)CCCCCCCCCCCCCCCCCCC(=O)O)C(=O)O)C(=O)N[C@@H](CCCNC(=N)N)C(=O)N[C@@H](C)C(=O)N[C@@H](C)C(=O)NC(C)(C)C(=O)N[C@@H](CCC(=O)O)C(=O)N[C@@H](Cc1ccccc1)C(=O)N[C@H](C(=O)N[C@@H](CCC(N)=O)C(=O)N[C@@H](Cc1c[nH]c2ccccc12)C(=O)N[C@@H](CC(C)C)C(=O)N[C@@H](CC(C)C)C(=O)N[C@@H](CCC(=O)O)C(=O)NCC(=O)NCC(=O)N1CCC[C@H]1C(=O)N[C@@H](CO)C(=O)N[C@@H](CO)C(=O)NCC(=O)N[C@@H](C)C(=O)N1CCC[C@H]1C(=O)N1CCC[C@H]1C(=O)N1CCC[C@H]1C(=O)N[C@@H](CO)C(N)=O)C(C)C [Compound No. 37] (H-H[Aib]HGTFTSDYSIYLEK([εLys-εLys-γGlu-C20 diacid])RAA[Aib]EFVQWLLEGGPSSGAPPPS-NH2; N-terminus assumed)
EC50 [1]: 1.8 pM
